Measurements: PubChem BioAssay (NCI)
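Compound exposure: 48 hours, 5 concentrations, 96-well plates. Abbreviation: GI50, concentration required for 50% inhibition of growth. TGI is the concentration that stops growth completely.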

Experiments:
Assay in all cases: NCI tumour cell line growth inhibition, 48 h
[1] = tested on: M14 melanoma
[2] = tested on: SF-268 CNS
[3] = tested on: NCI-H226 lung
[4] = tested on: T-47D breast
[5] = tested on: NCI-H522 lung
[6] = tested on: HS 578T breast
[7] = tested on: HOP-62 NSCLC
[8] = tested on: OVCAR-4 ovarian
[9] = tested on: SW-620 colon
[10] = tested on: RPMI-8226 leukemia
[11] = tested on: UACC-62 melanoma
[12] = tested on: SR leukemia
[13] = tested on: MDA-MB-231 breast
[14] = tested on: HOP-92 NSCLC
[15] = tested on: PC-3 prostate
[16] = tested on: SK-MEL-28 melanoma
[17] = tested on: SN12C renal
[18] = tested on: SK-MEL-5 melanoma
[19] = tested on: HCC-2998 colon
[20] = tested on: TK-10 renal
[21] = tested on: LOX IMVI melanoma
[22] = tested on: U251 CNS
[23] = tested on: UO-31 renal
[24] = tested on: CAKI-1 renal
[25] = tested on: HT29 colon
[26] = tested on: K-562 leukemia
[27] = tested on: SNB-75 CNS
[28] = tested on: DU-145 prostate
[29] = tested on: SF-539 CNS
[30] = tested on: NCI-H23 lung
[31] = tested on: OVCAR-3 ovarian
[32] = tested on: HL-60(TB) leukemia
[33] = tested on: MALME-3M melanoma
[34] = tested on: HCT-15 colon
[35] = tested on: MCF7 breast
[36] = tested on: NCI-H460 lung
[37] = tested on: SF-295 CNS
[38] = tested on: SK-OV-3 ovarian
[39] = tested on: SK-MEL-2 melanoma
[40] = tested on: OVCAR-5 ovarian
[41] = tested on: 786-0 renal
[42] = tested on: A549 NSCLC
[43] = tested on: HCT-116 colon
[44] = tested on: EKVX NSCLC
[45] = tested on: NCI/ADR-RES ovarian
[46] = tested on: MDA-MB-435
[47] = tested on: KM12 colon
[48] = tested on: MDA-MB-468 breast
[49] = tested on: SNB-19 CNS
[50] = tested on: BT-549 breast
[51] = tested on: A498 renal
[52] = tested on: CCRF-CEM leukemia
[53] = tested on: OVCAR-8 ovarian
[54] = tested on: IGROV1 ovarian
[55] = tested on: RXF 393 renal
[56] = tested on: UACC-257 melanoma
[57] = tested on: COLO 205 colon
[58] = tested on: MOLT-4 leukemia
[59] = tested on: ACHN renal

## Oc1ccc(Cl)c(Nc2ncnc3c2cnn3CC(Cl)c2ccc(Br)cc2)c1 (stereo not drawn)
[1]
  GI50: 11.2 µM
  TGI: 24.3 µM
[2]
  GI50: 6.07 µM
  TGI: 33.5 µM
[3]
  GI50: 11.8 µM
  TGI: 28.7 µM
[4]
  GI50: 4.48 µM
  TGI: 55.4 µM
[5]
  GI50: 7.4 µM
  TGI: 27.8 µM
[6]
  GI50: 1.13 µM
  TGI: 7.95 µM
[7]
  GI50: 11.7 µM
  TGI: 30.5 µM
[8]
  GI50: 13.1 µM
  TGI: 54.4 µM
[9]
  GI50: 21.9 µM
  TGI: 47.4 µM
[10]
  GI50: 17 µM
  TGI: 93.8 µM
[11]
  GI50: 12.6 µM
  TGI: 25.2 µM
[12]
  GI50: 6.67 µM
  TGI: 81.6 µM
[13]
  GI50: 7.29 µM
  TGI: 21 µM
[14]
  GI50: 2.34 µM
  TGI: 12.4 µM
[15]
  GI50: 4.53 µM
  TGI: 35.4 µM
[16]
  GI50: 14.9 µM
  TGI: 28.9 µM
[17]
  GI50: 3.79 µM
  TGI: 18.1 µM
[18]
  GI50: 10.5 µM
  TGI: 22.3 µM
[19]
  GI50: 14.9 µM
  TGI: 29.1 µM
[20]
  GI50: 13.9 µM
  TGI: 29 µM
[21]
  GI50: 2.09 µM
  TGI: 11.8 µM
[22]
  GI50: 11.3 µM
  TGI: 25.5 µM
[23]
  GI50: 2.34 µM
  TGI: 17 µM
[24]
  GI50: 3.72 µM
  TGI: 28.6 µM
[25]
  GI50: 13.9 µM
  TGI: 31.9 µM
[26]
  GI50: 0.0826 µM
  TGI: 12.9 µM
[27]
  GI50: 1.03 µM
  TGI: 5.58 µM
[28]
  GI50: 10.6 µM
  TGI: 32 µM
[29]
  GI50: 4.64 µM
  TGI: 18.1 µM
[30]
  GI50: 12.6 µM
  TGI: 26.3 µM
[31]
  GI50: 7.99 µM
  TGI: 38.8 µM
[32]
  GI50: 23.2 µM
  TGI: 62.2 µM
[33]
  GI50: 12.3 µM
  TGI: 25.1 µM
[34]
  GI50: 4.57 µM
  TGI: 19.4 µM
[35]
  GI50: 11.1 µM
  TGI: 26.2 µM
[36]
  GI50: 16.7 µM
  TGI: 36.5 µM
[37]
  GI50: 6.2 µM
  TGI: 27.3 µM
[38]
  GI50: 7.63 µM
  TGI: 31.3 µM
[39]
  GI50: 17.5 µM
  TGI: 34.3 µM
[40]
  GI50: 10.3 µM
  TGI: 24.4 µM
[41]
  GI50: 5.7 µM
  TGI: 23.3 µM
[42]
  GI50: 12.1 µM
  TGI: 37.3 µM
[43]
  GI50: 7.89 µM
  TGI: 21.4 µM
[44]
  GI50: 11.9 µM
  TGI: 34.6 µM
[45]
  GI50: 7.47 µM
  TGI: 27.4 µM
[46]
  GI50: 11.9 µM
  TGI: 26.8 µM
[47]
  GI50: 19.3 µM
  TGI: 42.9 µM
[48]
  GI50: 3.35 µM
  TGI: 16.3 µM
[49]
  GI50: 12.4 µM
  TGI: 36 µM
[50]
  GI50: 12.7 µM
  TGI: 25.4 µM
[51]
  GI50: 16.2 µM
  TGI: 30.7 µM
[52]
  GI50: 13.6 µM
  TGI: 60.1 µM
[53]
  GI50: 7.97 µM
  TGI: 25.9 µM
[54]
  GI50: 2.39 µM
  TGI: 8.31 µM
[55]
  GI50: 0.766 µM
  TGI: 7.17 µM
[56]
  GI50: 13.8 µM
  TGI: 28.3 µM
[57]
  GI50: 17.7 µM
  TGI: 38.7 µM
[58]
  GI50: 6.75 µM
  TGI: 37.7 µM
[59]
  GI50: 2.12 µM
  TGI: 15.3 µM
